Experimental data published in PMC6156078, “Thalidomide promotes degradation of SALL4, a transcription factor implicated in Duane Radial Ray syndrome” (eLife, 2018).

Key:
ACAD9 = assay: TMT proteomics Kelly cells: ACAD9 abundance; assay type: cell-based, human; settings: 5 h vs DMSO, thalidomide 10 µM
Text: (§1) Proteins were precipitated using methanol/chloroform.

[1] = test system: Flag-hsSALL4^G416A, Flag-hsSALL4^G416N; assay: Western blot of transfected Flag-hsSALL4 G416A/G416N in Kelly cells; assay type: cell-based, human; settings: thalidomide, 24 h
Experimental: (§2) For transient transfection, 0.2 million cells were seeded per well in a 12 well plate on day 1. On day 2, cells were transfected with 200–300 ng of plasmid (pNTM-Flag containing gene of interest) using 2 µL of lipofectamine 2000 transfection reagent (Invitrogen). On day 3, the desired concentration of IMiD was added to each well and cells were harvested after 24 h for western blot analysis using the protocol described above.

ZFP91 [2] = target: T1, ZFP91 (Homo sapiens, UniProt Q96JP5+Q96SW2); assay: TMT proteomics Kelly cells: ZFP91 abundance; settings: 5 h vs DMSO, thalidomide 10 µM, lenalidomide 5 µM, pomalidomide 1 µM
IKZF1 = IKZF1 (Homo sapiens, UniProt Q13422+Q96SW2); assay: TMT proteomics MM1s cells: IKZF1 abundance; settings: 5 h vs DMSO, thalidomide 10 µM, lenalidomide 5 µM, pomalidomide 1 µM
RAB28 = RAB28 (Homo sapiens, UniProt P51157); assay: TMT proteomics MM1s cells: RAB28 abundance; settings: 5 h vs DMSO, thalidomide 10 µM, lenalidomide 5 µM, pomalidomide 1 µM
Flag-hsSALL4^WT = Flag-hsSALL4^WT (Homo sapiens, UniProt Q9UJQ4); assay: Western blot of transfected Flag-hsSALL4 WT in Kelly cells; assay type: cell-based; settings: 24 h
Experimental: as §2

CYR61 = assay: TMT proteomics H9 hESC: CYR61 abundance; assay type: cell-based, human; settings: H9 hES cells, 5 h vs DMSO; thalidomide 10 µM
Text: (§3) We established a mass spectrometry-based workflow (Figure 1—figure supplement 1A) to detect IMiD-induced protein degradation in hESC.
as §1

ZFP91 [3] = target: T1, ZFP91; assay: TMT proteomics MM1s cells: ZFP91 abundance; settings: 5 h vs DMSO, thalidomide 10 µM, lenalidomide 5 µM, pomalidomide 1 µM
SALL4 mRNA = assay: Quantitative RT-PCR of total SALL4 mRNA in H9 hES cells; assay type: cell-based, human; settings: 10 µM thalidomide, 24 h vs DMSO
Experimental: RNA was isolated using the RNeasy Plus mini kit (Qiagen) and cDNA created by reverse transcription using ProtoScript II reverse transcriptase (NEB) following the manufacturer’s instructions. The following primer sets from IDT were used with SYBR Green Master Mix (Applied Biosystems) to probe both GAPDH and total SALL4 levels:
Analysis was performed on a CFX Connect Real-Time PCR System (Bio-Rad) in a white 96-well PCR plate. Relative expression levels were calculated using the ΔΔCT method.

zebrafish embryos = test system: zebrafish embryos; set-up: method as in Ito et al., 2010; settings: ref Ito et al., 2010; cited from earlier work
[4] = target: hsSALL4ZnF2 / DDB1∆B-CRBN (Homo sapiens, UniProt Q96SW2+Q9UJQ4); assay: TR-FRET IMiD-dependent binding of SALL4ZnF2 to CRBN; settings: DDB1∆B-CRBN 200 nM, hsSALL4ZnF2 100 nM
Text: The TR-FRET signal of each data point was extracted by calculating the 520/490 nm ratios.

SALL4 [5] = target: T2, SALL4 (Homo sapiens, UniProt Q9UJQ4); assay: Western blot of SALL4 in Kelly, SK-N-DZ, HEK293T and H661 cells; settings: increasing concentrations, 24 h
SALL4 [6] = assay: Western blot of SALL4 in CRBN-/- Kelly and HEK293T cells; assay type: cell-based, human; settings: increasing concentrations, 24 h
IKZF3 = IKZF3 (Homo sapiens, UniProt Q96SW2+Q9UKT9); assay: TMT proteomics MM1s cells: IKZF3 abundance; settings: 5 h vs DMSO, thalidomide 10 µM, lenalidomide 5 µM, pomalidomide 1 µM
PPA1 = assay: TMT proteomics H9 hESC: PPA1 abundance; assay type: cell-based, human; settings: H9 hES cells, 5 h vs DMSO; thalidomide 10 µM, lenalidomide 5 µM
Text: as §3, §1

mmSALL4 = target: T3, mmSALL4 (Mus musculus, UniProt Q8BX22); assay: Western blot of mmSALL4 in mouse embryonic stem cells; assay type: cell-based; settings: increasing concentrations, 24 h
T3 construct: endogenous in cells; host or cells: TC1 mouse embryonic stem cells

ZNF827 = ZNF827 (Homo sapiens, UniProt Q17R98+Q96SW2); assay: TMT proteomics Kelly cells: ZNF827 abundance; settings: 5 h vs DMSO, thalidomide 10 µM, lenalidomide 5 µM, pomalidomide 1 µM
[7] = 2013, cited from earlier work
PPP3R1 = assay: TMT proteomics MM1s cells: PPP3R1 abundance; assay type: cell-based, human; settings: 5 h vs DMSO, thalidomide 10 µM
Text: as §1

ZNF692 = ZNF692 (Homo sapiens, UniProt Q96SW2+Q9BU19); assay: TMT proteomics Kelly cells: ZNF692 abundance; settings: 5 h vs DMSO, thalidomide 10 µM, lenalidomide 5 µM, pomalidomide 1 µM
[8] = target: Flag-mmSALL4 containing a humanized ZnF2 (Y415F, P418S, I419V, L430F, Q435H) (UniProt Q8BX22+Q96SW2, I419V/L434F/P418S/Q435H/Y415F); assay: Western blot of Flag-mmSALL4 with humanized ZnF2 in Kelly cells; assay type: cell-based, mouse; settings: thalidomide, 24 h
Experimental: as §2

chicken embryos = test system: chicken embryos; set-up: method as in Ito et al., 2010; settings: direct application to the limb buds, ref Ito et al., 2010; cited from earlier work
[9] = test system: Flag-hsSALL4^G600A, hsSALL4^G600N; assay: Western blot of transfected Flag-hsSALL4 G600A/G600N in Kelly cells; assay type: cell-based, human; settings: thalidomide, 24 h
Experimental: as §2

[10] = test system: IMiD-dependent neo-substrates; assay: TMT proteomics profiling of IMiD-dependent neo-substrates (hESC, Kelly, SK-N-DZ, MM1s); assay type: cell-based, human
Text: as §3, §1

SALL4 [11] = target: T2, SALL4; assay: TMT proteomics H9 hESC: SALL4 abundance; assay type: cell-based; settings: H9 hES cells, 5 h vs DMSO; thalidomide 10 µM, lenalidomide 5 µM, pomalidomide 1 µM
Text: as §3, §1

SALL4 [12] = target: T2, SALL4; assay: Western blot of SALL4 in H9 hESC; assay type: cell-based; set-up: endogenous in cells; host or cells: Kelly, H9 hESC, SK-N-DZ cells; settings: increasing doses, 24 h
RPS17; RPS17L = assay: TMT proteomics H9 hESC: RPS17 abundance; assay type: cell-based, human; settings: H9 hES cells, 5 h vs DMSO; thalidomide 10 µM
Text: as §3, §1

SALL4 [13] = target: T2, SALL4; assay: TMT proteomics Kelly cells: SALL4 abundance; settings: 5 h vs DMSO, thalidomide 10 µM, lenalidomide 5 µM, pomalidomide 1 µM
VRTN = target: T4, VRTN (Homo sapiens, UniProt Q9H8Y1); assay: TMT proteomics H9 hESC: VRTN abundance; assay type: cell-based; settings: H9 hES cells, 5 h vs DMSO; thalidomide 10 µM, pomalidomide 1 µM
T4 construct: endogenous in cells; host or cells: H9 hESC
Text: as §3, §1

[14] = target: DDB1∆B-CRBN_(Spy-BodipyFL), Q16531;Q96SW2; assay: TR-FRET; settings: terbium-streptavidin 4 nM, read off a plot
[15] = value at the highest DDB1∆B-CRBN concentration (about 12.8 µM), SALL4 ZnF1-2 100 nM, thalidomide 50 µM, parent: est. 45

T3 sequence (Q8BX22 whole entry): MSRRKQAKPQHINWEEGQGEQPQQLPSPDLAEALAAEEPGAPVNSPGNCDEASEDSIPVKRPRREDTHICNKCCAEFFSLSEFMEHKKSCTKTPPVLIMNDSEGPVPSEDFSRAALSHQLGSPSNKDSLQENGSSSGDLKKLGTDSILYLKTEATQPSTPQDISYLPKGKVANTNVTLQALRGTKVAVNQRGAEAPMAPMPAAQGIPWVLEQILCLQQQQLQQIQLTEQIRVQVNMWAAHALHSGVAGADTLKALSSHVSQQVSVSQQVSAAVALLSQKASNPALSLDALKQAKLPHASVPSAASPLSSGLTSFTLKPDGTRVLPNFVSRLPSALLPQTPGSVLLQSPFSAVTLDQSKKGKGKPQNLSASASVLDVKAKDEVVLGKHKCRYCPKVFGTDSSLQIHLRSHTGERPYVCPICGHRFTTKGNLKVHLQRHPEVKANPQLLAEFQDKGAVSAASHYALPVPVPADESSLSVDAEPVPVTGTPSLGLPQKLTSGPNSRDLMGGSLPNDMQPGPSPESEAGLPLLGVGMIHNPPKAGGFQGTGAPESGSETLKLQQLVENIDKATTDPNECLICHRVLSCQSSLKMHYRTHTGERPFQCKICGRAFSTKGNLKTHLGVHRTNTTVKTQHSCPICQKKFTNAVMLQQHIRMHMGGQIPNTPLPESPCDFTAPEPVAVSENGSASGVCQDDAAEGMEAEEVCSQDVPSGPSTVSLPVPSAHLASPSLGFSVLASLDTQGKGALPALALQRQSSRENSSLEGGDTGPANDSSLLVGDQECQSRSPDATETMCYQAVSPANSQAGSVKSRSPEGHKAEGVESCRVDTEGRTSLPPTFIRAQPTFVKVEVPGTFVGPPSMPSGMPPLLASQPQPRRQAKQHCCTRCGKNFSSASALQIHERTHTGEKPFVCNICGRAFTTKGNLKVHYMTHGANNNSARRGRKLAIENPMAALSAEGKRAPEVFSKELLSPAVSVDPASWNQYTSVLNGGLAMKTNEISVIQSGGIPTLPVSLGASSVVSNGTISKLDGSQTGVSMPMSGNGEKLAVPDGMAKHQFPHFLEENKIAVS
T4 sequence (Q9H8Y1 whole entry): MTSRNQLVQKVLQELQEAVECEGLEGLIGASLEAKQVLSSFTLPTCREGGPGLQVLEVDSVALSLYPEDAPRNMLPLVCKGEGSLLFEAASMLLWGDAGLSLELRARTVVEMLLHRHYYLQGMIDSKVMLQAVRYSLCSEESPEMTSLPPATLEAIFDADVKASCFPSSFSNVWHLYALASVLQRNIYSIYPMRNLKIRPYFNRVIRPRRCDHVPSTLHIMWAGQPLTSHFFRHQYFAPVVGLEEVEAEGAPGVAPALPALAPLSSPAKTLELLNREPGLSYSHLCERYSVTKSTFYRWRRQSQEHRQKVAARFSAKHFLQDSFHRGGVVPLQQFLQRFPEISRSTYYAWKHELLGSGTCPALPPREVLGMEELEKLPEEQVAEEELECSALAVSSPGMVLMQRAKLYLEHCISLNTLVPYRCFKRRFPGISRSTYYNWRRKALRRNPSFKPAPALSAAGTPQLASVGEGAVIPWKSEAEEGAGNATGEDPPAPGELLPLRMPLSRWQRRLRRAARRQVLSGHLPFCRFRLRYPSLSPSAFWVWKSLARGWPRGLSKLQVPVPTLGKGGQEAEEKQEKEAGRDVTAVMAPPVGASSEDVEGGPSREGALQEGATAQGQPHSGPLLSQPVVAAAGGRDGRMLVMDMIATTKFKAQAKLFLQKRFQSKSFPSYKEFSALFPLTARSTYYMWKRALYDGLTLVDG
Chain of Flag-hsSALL4^WT (Q9UJQ4 whole entry): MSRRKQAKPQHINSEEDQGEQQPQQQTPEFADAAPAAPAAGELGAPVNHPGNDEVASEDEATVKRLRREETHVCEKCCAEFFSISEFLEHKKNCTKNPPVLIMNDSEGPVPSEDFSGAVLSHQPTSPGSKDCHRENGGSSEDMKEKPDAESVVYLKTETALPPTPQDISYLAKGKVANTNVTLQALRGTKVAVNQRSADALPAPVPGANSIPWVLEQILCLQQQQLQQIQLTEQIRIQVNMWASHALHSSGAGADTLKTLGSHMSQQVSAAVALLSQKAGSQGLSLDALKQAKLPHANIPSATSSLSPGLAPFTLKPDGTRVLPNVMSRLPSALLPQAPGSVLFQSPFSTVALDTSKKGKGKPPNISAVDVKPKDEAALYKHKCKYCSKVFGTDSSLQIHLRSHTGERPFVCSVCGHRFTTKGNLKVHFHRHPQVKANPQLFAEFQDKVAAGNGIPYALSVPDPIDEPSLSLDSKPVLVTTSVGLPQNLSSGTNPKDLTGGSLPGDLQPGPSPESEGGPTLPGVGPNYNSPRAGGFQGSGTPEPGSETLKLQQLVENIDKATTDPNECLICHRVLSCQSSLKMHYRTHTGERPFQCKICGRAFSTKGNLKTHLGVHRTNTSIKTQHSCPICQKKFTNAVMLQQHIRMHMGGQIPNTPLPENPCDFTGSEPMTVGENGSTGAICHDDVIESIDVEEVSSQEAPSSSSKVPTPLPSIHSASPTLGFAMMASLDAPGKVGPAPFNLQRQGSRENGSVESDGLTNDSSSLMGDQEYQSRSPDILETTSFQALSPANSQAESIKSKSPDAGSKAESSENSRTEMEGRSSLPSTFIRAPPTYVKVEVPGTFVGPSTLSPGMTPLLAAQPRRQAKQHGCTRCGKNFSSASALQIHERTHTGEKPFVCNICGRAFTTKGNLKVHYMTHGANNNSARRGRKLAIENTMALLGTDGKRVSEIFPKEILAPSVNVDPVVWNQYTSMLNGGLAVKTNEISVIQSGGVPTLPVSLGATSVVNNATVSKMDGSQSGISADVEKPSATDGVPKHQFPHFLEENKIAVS

O=C1CCC(N2C(=O)c3ccccc3C2=O)C(=O)N1 (stereo not shown) [thalidomide]
logFC ACAD9 (ACAD9): 0.09357
degradation of Flag-SALL4 with G416A or G416N mutations in ZnF2 [1]: rendered SALL4 stable
logFC ZFP91 (ZFP91 [2]): -0.2749
logFC IKZF1 (IKZF1): -0.3052
logFC RAB28 (RAB28): -0.4948
degradation of ectopically expressed Flag-hsSALL4 wild type (Flag-hsSALL4^WT): readily degraded
logFC CYR61 (CYR61): 0.4402
logFC ZFP91 (ZFP91 [3]): -0.6875
SALL4 mRNA level (qPCR, normalized to GAPDH) (SALL4 mRNA): upregulates SALL4 mRNA
SALL4 mRNA level (qPCR, normalized to GAPDH) (SALL4 mRNA; listed as Thalidomide): did not influence the expression of SALL4 mRNA
dose found to be teratogenic (zebrafish embryos): 400 µM
rank order in binding observed with ZnF2 [4]: Pom >Thal >> Len
SALL4 protein levels (western blot) (SALL4 [5]): dose-dependent decrease in SALL4 protein levels
SALL4 degradation in CRBN-/- cells (SALL4 [6]): no degradation of SALL4 was observed
logFC IKZF3 (IKZF3): -0.3448
logFC PPA1 (PPA1): -0.1282
degradation of mmSALL4 in mESC (mmSALL4): does not promote degradation of mmSALL4
logFC ZNF827 (ZNF827): -0.4132
plasma concentration in humans ([7]; ref Bai et al., Dahut et al., 2009): ≤ 10 µM
Cmax ([7]; typical dose 200–400 mg thalidomide, 25 mg lenalidomide, 2 mg pomalidomide, ref Chen et al., 2017, Hoffmann et al., Teo et al., 2004, read-out: maximum plasma concentration (Cmax)): 5 to 10 µM
logFC PPP3R1 (PPP3R1): -0.2263
logFC ZNF692 (ZNF692): -2.248
degradation of mmSALL4 with humanized ZnF2 domain [8]: induce thalidomide-mediated mouse SALL4 degradation
dose found to be teratogenic (chicken embryos): 400 µM
degradation of Flag-SALL4 with G600A or G600N mutations in ZnF4 [9]: readily degraded
number of substrates identified (rank order) ([10]; H9 hESC proteomics): Thal < Len << Pom
substrates robustly degraded (each drug in addition to the preceding one) ([10]; proteomics across hESC, MM1s, Kelly, SK-N-DZ cells): ZNF692, SALL4, and the ubiquitin ligase RNF166
logFC SALL4 (SALL4 [11]): -1.582
SALL4 protein levels (western blot) (SALL4 [12]): dose-dependent decrease in protein levels
logFC RPS17; RPS17L (RPS17; RPS17L): -0.1321
logFC SALL4 (SALL4 [13]): -1.628
logFC VRTN (VRTN): -0.4098

_(Strep-BirA)hsSALL4_(378-438) (ZnF1-2) (from UniProt Q9UJQ4) G416N
response [14, 15]: 6 520/490

_(Strep-BirA)hsSALL4_(378-438) (ZnF1-2) (from UniProt Q9UJQ4) S388N
response [14, 15]: 45 520/490
response ([14]; value at the highest lenalidomide dose (log[Len] about -4.4 M), DDB1∆B-CRBN 200 nM, SALL4 ZnF1-2 100 nM, parent: est. 2.6): 1.6 520/490
response ([14]; value at the highest pomalidomide dose (log[Pom] about -4.4 M), DDB1∆B-CRBN 200 nM, SALL4 ZnF1-2 100 nM, parent: est. 4.1): 2.6 520/490
response ([14]; value at the highest thalidomide dose (log[Thal] about -4.4 M), DDB1∆B-CRBN 200 nM, SALL4 ZnF1-2 100 nM, parent: est. 3.7): 2.2 520/490

_(Strep-BirA)hsSALL4_(402-436) (ZnF2) (from UniProt Q9UJQ4) G416A
response ([14]; value at the highest lenalidomide dose (log[Len] about -4.4 M), DDB1∆B-CRBN 200 nM, SALL4 ZnF2 100 nM, parent: est. 0.47): 0.075 520/490
response ([14]; value at the highest pomalidomide dose (log[Pom] about -4.4 M), DDB1∆B-CRBN 200 nM, SALL4 ZnF2 100 nM, parent: est. 0.97): 0.09 520/490

_(Strep-BirA)hsSALL4_(590-618) (ZnF4) (from UniProt Q9UJQ4) Q595H
response ([14]; value at the highest thalidomide dose (log(Thal) about -4.5 M), DDB1∆B-CRBN 1 µM, SALL4 ZnF4 100 nM, parent: est. 0.27): 0.19 520/490
